# Measurements reported in patent US20240360142A1, “Multitargeting Agents For The Potential Treatment of Dementia With Lewy Bodies, Parkinson's Disease, and Alzheimer Disease With Lewy Bodies” (Duquesne University of The Holy Spirit, priority 2023, published 2024).
# “And” between values parts separate entries of the source, which are not always exact repeats. Equal entries are not always repeated. “Also recorded” adds a separate entry of the source. Where two headings read alike, the source gives them in different places.
# Legend:
# ABL1 = ABL1 (Homo sapiens, UniProt P00519); experiment: Kinase inhibition, ABL1; assay type: biochemical
# From the text: (§1) Total inhibition of these kinases would be detrimental to neuronal viability.
# CSNK1A1 (CK1 alpha 1) = CSNK1A1 (CK1 alpha 1) (Homo sapiens, UniProt P48729); experiment: Kinase inhibition, CSNK1A1; assay type: biochemical
# From the text: as §1
# CSNK2A2 (CK2 alpha 2) = CSNK2A2 (CK2 alpha 2) (Homo sapiens, UniProt P19784); experiment: Kinase inhibition, CSNK2A2; assay type: biochemical; conditions: ATP Km app 46 μM
# From the text: as §1
# DYRK1A = DYRK1A (Homo sapiens, UniProt Q13627); experiment: Kinase inhibition, DYRK1A; assay type: biochemical; conditions: ATP Km app 99.7 μM
# From the text: as §1
# FYN = FYN (Homo sapiens, UniProt P06241); experiment: Kinase inhibition, FYN; assay type: biochemical
# From the text: as §1
# GRK5 = GRK5 (Homo sapiens, UniProt P34947); experiment: Kinase inhibition, GRK5; assay type: biochemical; conditions: ATP Km app 3 μM
# From the text: as §1
# GRK6 = GRK6 (Homo sapiens, UniProt P43250); experiment: Kinase inhibition, GRK6; assay type: biochemical; conditions: ATP Km app 11.7 μM
# From the text: as §1
# GSK3β = GSK3β (Homo sapiens, UniProt P49841); experiment: Kinase inhibition, GSK3β; assay type: biochemical
# From the text: as §1
# LARK2 = LARK2 (Homo sapiens, UniProt Q5S007); experiment: Kinase inhibition, LARK2; assay type: biochemical; also: ATP Km app 70 µM
# From the text: as §1
# PLK2 = PLK2 (Homo sapiens, UniProt Q9NYY3); experiment: Kinase inhibition, PLK2; assay type: biochemical; conditions: ATP Km app 29.6 μM
# From the text: as §1
# Solubility = assay type: physicochemical; conditions: simulated gastric fluid; pH 2.0
# [1] = Protein Binding, Human Plasma; assay type: in vitro ADME; conditions: read-out: Protein Binding % Bound (converted)
# [2] = Protein Binding, Mouse Plasma; assay type: in vitro ADME; conditions: read-out: Protein Binding % Bound (converted)
# [3] = Brain Tissue Binding, Mouse; assay type: in vitro ADME; conditions: read-out: Brain Tissue Binding % Bound (converted)
# [4] = Metabolic Stability, Human; assay type: in vitro ADME; conditions: for half-life: read-out: Metabolic Stability T1/2
# [5] = Metabolic Stability, Mouse; assay type: in vitro ADME; conditions: for half-life: read-out: Metabolic Stability T1/2
# Permeability, MDC-MDR1 = assay type: in vitro ADME; conditions: MDCK-MDR1
# in vivo = experiment: in vivo; parameters: species or system male CD-1 mice; conditions: for clinical symptoms during pharmacokinetic work: mouse
# Experimental: Briefly, each compound was administered through intravenous and oral routes, and plasma samplings were collected from 2 to 24 hours post-injection for analyses by high-performance liquid chromatography and mass spectrometry (Prominence (Degasser DGU-20A5R(C), Serial NO. L20705619752 IX; Liquid Chromatograph LC-30AD Serial NO. L20555611120 AE and L20555611116 AE; Communications Bus Module CBM-20A, Serial NO. L20235635001 CD, Auto SIL-20AC HT, Serial No. L20355305356 AE; Rack changer II, Serial No. L20585300757 SS; AB Sciex Triple Quan 5500 LC/MS/MS instrument (Serial NO. EF20711807)). A HALO 90A, C18 2.7 μm 2.1×50 mm USKL004340 column was used and the mobile phase was 5 or 95% acetonitrile in water with 0.1% formic acid (see Supplemental Material).
# [6] = target: T1, tubulin purified from porcine brain (Sus scrofa, UniProt P02550+P02554); conditions: cited from earlier work
# T1 construct: in vitro assembly of tubulin purified from porcine brain; from tissue; host or cells: porcine brain
# [7] = system: primary hippocampal cultures; experiment: Viability / toxicity in primary hippocampal cultures; assay type: cell-based
# From the text: Thresholds were kept uniform across individual experiments.
# [8] = system: βIII-tubulin+ structures in primary hippocampal neurons; experiment: Nocodazole shock treatment followed by cold methanol fixation, βIII-tubulin staining; assay type: cell-based, rat; conditions: AG161-47 8 μM; nocodazole 50 nM and 5 μM
# Experimental: For cold methanol fixation, primary hippocampal cultures plated on glass slides were exposed to ice-cold methanol (−20° C.) for 15 minutes on DIV 4. […] After immunostaining, coverslips were applied using FluoroMount-G (0100-01, SouthernBiotech).
# The microtubule destabilizer/depolymerizer and kinase inhibitor nocodazole blocks AG161-47 activity: We qualitatively compared AG161-47 with the established microtubule destabilizer/depolymerizer nocodazole (Baas & Black, 1990; Baas et al., 2016; Bates & Eastman, 2017; Kapellos et al., 2016; Koenigsknecht & Landreth, 2004; Kuhn, 1998; Mandrekar et al., 2009; Nakayama et al., 2012; Park et al., 2012), using a nocodazole shock treatment followed by cold methanol fixation in primary hippocampal cultures, as previously described (Ferreira et al., 2018; Warren et al., 2020). Primary hippocampal cultures were treated with vehicle or AG161-47 at 8 μM or nocodazole at 50 nM and 5 μM.
# [9] = system: male CD-1 mice infused with preformed α-synuclein fibrils; experiment: In vivo model of limbic-centered Lewy body disease (fibril infusion in OB/AON, daily tablets for six weeks); parameters: species or system mouse
# [10] = system: microtubules in HeLa cells; conditions: cited from earlier work
# [11] = system: α-tubulin (detyrosinated, tyrosinated, acetylated); experiment: Post-translational markers of microtubule stability in primary hippocampal cultures (immunoblotting); assay type: cell-based, rat; conditions: 5 nM nocodazole, in the presence of fibrils
# Sequence of FYN (P06241 whole entry): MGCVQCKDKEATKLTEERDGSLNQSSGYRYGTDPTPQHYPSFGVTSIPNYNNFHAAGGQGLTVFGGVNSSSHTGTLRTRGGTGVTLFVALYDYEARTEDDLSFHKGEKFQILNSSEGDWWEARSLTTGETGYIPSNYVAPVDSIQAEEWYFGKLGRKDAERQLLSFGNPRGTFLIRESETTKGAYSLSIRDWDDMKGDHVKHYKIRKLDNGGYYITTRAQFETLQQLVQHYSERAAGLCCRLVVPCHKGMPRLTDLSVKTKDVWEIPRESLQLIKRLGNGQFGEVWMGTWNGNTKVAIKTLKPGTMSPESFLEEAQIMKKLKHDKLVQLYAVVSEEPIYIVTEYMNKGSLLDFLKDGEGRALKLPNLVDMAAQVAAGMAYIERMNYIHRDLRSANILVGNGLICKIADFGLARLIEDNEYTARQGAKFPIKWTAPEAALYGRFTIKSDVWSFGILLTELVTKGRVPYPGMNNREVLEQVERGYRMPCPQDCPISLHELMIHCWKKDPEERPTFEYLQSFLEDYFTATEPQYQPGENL
# Sequence of CSNK1A1 (CK1 alpha 1) (P48729 whole entry): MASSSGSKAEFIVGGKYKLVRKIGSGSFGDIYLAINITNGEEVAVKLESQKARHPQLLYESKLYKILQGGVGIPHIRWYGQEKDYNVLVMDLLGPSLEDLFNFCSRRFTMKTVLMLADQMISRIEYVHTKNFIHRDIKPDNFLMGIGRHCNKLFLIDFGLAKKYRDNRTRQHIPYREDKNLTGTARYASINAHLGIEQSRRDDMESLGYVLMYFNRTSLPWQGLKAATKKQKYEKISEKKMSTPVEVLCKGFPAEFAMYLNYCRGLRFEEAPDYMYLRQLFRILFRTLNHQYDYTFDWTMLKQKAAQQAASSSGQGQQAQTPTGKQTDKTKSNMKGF
# Sequence of ABL1 (P00519 whole entry): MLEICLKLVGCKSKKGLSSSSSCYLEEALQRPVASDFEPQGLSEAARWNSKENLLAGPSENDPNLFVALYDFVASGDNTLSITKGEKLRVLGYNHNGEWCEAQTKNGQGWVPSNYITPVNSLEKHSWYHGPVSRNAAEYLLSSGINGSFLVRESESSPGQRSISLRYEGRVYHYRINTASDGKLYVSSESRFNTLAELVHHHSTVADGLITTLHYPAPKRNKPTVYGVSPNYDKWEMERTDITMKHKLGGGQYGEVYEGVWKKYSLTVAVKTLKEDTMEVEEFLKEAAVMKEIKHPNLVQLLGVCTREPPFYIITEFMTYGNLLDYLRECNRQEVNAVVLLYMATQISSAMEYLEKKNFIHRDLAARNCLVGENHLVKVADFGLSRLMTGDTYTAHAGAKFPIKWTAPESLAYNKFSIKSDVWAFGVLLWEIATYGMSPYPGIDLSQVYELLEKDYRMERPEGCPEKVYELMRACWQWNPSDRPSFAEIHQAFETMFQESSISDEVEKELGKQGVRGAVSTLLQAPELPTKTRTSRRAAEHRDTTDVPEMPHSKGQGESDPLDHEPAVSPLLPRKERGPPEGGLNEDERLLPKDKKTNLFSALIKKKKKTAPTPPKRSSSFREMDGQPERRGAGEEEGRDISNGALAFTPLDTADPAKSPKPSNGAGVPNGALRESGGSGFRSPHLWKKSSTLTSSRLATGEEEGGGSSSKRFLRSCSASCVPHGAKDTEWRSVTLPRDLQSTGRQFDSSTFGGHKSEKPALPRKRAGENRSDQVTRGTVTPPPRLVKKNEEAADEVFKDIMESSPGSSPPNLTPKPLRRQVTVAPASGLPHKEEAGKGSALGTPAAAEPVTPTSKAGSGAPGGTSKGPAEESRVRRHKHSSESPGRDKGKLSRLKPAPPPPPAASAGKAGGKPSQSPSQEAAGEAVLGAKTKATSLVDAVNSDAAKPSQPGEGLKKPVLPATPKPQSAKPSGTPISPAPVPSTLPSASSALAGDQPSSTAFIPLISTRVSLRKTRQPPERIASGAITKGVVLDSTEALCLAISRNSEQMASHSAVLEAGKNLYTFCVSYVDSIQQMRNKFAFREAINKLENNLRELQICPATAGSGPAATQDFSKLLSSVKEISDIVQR
# Sequence of GSK3β (P49841 whole entry): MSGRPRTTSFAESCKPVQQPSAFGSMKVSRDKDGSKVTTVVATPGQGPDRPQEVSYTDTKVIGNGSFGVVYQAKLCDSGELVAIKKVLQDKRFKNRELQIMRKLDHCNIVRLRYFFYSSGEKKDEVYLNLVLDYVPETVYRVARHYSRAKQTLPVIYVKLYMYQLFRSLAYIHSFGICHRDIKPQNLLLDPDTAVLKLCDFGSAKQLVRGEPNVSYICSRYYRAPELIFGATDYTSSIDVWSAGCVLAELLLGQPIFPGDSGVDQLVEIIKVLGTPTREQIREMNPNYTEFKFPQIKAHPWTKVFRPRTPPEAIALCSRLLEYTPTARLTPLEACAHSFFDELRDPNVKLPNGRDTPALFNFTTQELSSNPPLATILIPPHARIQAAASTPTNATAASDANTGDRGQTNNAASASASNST
# Sequence of LARK2 (Q5S007 whole entry): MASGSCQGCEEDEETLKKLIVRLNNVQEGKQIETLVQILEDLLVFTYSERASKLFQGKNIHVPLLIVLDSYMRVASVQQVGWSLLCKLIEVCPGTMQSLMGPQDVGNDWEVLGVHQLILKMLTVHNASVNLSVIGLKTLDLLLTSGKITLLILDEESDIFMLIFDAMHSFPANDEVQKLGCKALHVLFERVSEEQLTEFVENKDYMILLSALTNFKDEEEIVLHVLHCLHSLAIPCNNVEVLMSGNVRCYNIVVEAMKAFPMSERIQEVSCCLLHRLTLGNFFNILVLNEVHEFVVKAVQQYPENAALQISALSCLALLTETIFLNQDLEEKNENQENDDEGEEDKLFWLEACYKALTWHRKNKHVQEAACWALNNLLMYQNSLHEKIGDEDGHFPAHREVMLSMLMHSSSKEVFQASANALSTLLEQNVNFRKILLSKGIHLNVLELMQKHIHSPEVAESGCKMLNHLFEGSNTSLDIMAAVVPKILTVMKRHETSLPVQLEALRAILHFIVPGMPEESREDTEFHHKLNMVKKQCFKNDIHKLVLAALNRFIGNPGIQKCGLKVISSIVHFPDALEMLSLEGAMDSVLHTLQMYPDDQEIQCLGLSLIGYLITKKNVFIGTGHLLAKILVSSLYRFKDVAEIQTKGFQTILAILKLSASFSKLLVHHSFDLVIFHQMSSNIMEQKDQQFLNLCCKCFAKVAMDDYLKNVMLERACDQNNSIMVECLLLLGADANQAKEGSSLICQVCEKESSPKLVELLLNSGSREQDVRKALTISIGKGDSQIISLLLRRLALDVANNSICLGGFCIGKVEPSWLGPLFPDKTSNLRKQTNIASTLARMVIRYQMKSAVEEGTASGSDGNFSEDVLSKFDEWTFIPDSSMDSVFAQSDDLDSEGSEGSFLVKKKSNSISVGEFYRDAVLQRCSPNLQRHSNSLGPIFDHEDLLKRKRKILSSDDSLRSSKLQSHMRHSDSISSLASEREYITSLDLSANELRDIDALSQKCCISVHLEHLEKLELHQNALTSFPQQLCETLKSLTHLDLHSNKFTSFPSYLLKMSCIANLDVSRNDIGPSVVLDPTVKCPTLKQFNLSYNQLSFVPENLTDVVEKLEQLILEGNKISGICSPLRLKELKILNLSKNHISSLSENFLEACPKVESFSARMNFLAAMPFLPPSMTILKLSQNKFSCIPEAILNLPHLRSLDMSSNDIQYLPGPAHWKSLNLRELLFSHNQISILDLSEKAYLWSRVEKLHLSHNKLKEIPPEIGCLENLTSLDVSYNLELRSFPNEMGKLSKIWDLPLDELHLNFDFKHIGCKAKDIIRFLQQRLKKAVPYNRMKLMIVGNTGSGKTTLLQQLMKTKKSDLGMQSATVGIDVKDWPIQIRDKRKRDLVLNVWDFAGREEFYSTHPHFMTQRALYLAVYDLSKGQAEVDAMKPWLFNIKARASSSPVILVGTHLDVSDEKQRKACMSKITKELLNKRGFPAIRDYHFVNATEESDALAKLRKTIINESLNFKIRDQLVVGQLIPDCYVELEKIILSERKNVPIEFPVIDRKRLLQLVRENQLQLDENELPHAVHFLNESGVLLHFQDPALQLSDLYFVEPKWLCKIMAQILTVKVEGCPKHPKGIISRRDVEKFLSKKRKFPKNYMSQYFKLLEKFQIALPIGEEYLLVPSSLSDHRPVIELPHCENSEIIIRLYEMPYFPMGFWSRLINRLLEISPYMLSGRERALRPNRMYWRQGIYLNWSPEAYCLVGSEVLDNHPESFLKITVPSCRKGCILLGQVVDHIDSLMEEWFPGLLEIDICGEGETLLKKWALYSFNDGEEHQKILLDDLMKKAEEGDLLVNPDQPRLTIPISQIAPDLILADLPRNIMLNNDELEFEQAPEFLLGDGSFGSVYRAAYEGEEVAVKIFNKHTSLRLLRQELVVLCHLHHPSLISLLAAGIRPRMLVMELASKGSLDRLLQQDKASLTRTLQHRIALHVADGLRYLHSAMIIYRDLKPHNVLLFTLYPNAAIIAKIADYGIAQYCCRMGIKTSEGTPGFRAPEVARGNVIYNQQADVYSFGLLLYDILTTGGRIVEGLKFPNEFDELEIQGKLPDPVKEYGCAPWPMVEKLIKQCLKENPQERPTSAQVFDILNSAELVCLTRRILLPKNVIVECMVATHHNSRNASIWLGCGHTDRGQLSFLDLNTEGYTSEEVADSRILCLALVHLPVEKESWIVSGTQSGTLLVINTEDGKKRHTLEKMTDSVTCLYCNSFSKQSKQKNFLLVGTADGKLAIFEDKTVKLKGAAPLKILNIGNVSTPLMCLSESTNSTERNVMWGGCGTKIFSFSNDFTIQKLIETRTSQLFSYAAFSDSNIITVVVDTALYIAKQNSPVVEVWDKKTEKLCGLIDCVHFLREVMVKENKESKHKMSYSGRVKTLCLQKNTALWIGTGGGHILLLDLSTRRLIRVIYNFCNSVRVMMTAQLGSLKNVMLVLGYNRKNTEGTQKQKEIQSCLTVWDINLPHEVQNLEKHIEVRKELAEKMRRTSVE
compound,measurement,setting,value
Cc1ccc(N(C)c2nc(N)nc3[nH]c4cccc(Cl)c4c23)cc1 [AGN5],IC50,ABL1; ATP Km app 12 μM,26.1 nM
same,IC50,CSNK1A1 (CK1 alpha 1),498 nM
same,IC50,CSNK2A2 (CK2 alpha 2),> 1110 nM
same,IC50,DYRK1A,249 nM
same,IC50,FYN; ATP Km app 85 μM,169 nM
same,IC50,GRK5,> 370 nM
same,IC50,GRK6,64.3 nM
same,IC50,GSK3β,3.12 nM
same,IC50,LARK2,20 nM
same,IC50,PLK2,16.7 nM
same,solubility,Solubility,1.75 µM
same,fraction unbound,[1],0.0022
same,fraction unbound,[2],< 0.0002
same,fraction unbound,[3],0.0004
same,CLint scaled,[4],44.7 mL/min/kg
same,half-life,[4],38.9 min
same,CLint scaled,[5],602 mL/min/kg
same,half-life,[5],10.1 min
same,Papp A→B,"Permeability, MDC-MDR1",1.74 ×10⁻⁶ cm/s
same,Papp B→A,"Permeability, MDC-MDR1",2.98 ×10⁻⁶ cm/s
same,Kp,"in vivo; male, CD-1, mouse",5.99
same,Kp uu at 2 h,"in vivo; male, CD-1, mouse",6
same,C0,"in vivo; male, CD-1, mouse, iv, 1 mg/kg",811 ng/mL
same,CIobs,"in vivo; male, CD-1, mouse, iv, 1 mg/kg",49.5 mL/min/kg
same,Vss_obs,"in vivo; male, CD-1, mouse, iv, 1 mg/kg",3.24 L/kg
same,half-life,"in vivo; male, CD-1, mouse, iv, 1 mg/kg",93 min
same,AUC(0-t),"in vivo; male, CD-1, mouse, po, 1 mg/kg",19.2 ng·h/mL
same,Cmax,"in vivo; male, CD-1, mouse, po, 1 mg/kg",14.7 ng/mL and 44 nM
same,F,"in vivo; male, CD-1, mouse, po, 1 mg/kg",6.35%
same,Tmax,"in vivo; male, CD-1, mouse, po, 1 mg/kg",30 min
same,half-life,"in vivo; male, CD-1, mouse, po, 1 mg/kg",46.8 min
same,clinical symptoms during pharmacokinetic work,in vivo,no abnormal clinical symptoms were observed
same,in vitro assembly of porcine brain tubulin,[6],accelerate the temporal kinetics of porcine brain tubulin in vitro assembly
CN(c1ccccc1)c1nc(N)nc2[nH]c3cccc(Cl)c3c12 [AGN11],IC50,ABL1; ATP Km app 12 μM,7.96 nM
same,IC50,CSNK1A1 (CK1 alpha 1),30.5 nM
same,IC50,CSNK2A2 (CK2 alpha 2),> 1110 nM
same,IC50,DYRK1A,8.15 nM
same,IC50,FYN; ATP Km app 85 μM,888 nM
same,IC50,GRK5,> 1110 nM
same,IC50,GRK6,614 nM
same,IC50,GSK3β,8.12 nM
same,IC50,LARK2,7.03 nM
same,IC50,PLK2,> 370 nM
same,solubility,Solubility,0.71 µM
same,fraction unbound,[1],0.004
same,fraction unbound,[2],0.0022
same,fraction unbound,[3],0.0008
same,CLint scaled,[4],45.6 mL/min/kg
same,half-life,[4],38.1 min
same,CLint scaled,[5],602 mL/min/kg
same,half-life,[5],10.1 min
same,Papp A→B,"Permeability, MDC-MDR1",4.97 ×10⁻⁶ cm/s
same,Papp B→A,"Permeability, MDC-MDR1",4.16 ×10⁻⁶ cm/s
same,Kp,"in vivo; male, CD-1, mouse",4.5
same,Kp uu at 2 h,"in vivo; male, CD-1, mouse",4.4
same,C0,"in vivo; male, CD-1, mouse, iv, 1 mg/kg",529 ng/mL
same,CIobs,"in vivo; male, CD-1, mouse, iv, 1 mg/kg",120 mL/min/kg
same,Vss_obs,"in vivo; male, CD-1, mouse, iv, 1 mg/kg",2.41 L/kg
same,half-life,"in vivo; male, CD-1, mouse, iv, 1 mg/kg",19.4 min
same,AUC(0-t),"in vivo; male, CD-1, mouse, po, 1 mg/kg",11 ng·h/mL
same,F,"in vivo; male, CD-1, mouse, po, 1 mg/kg",8.38%
same,Tmax,"in vivo; male, CD-1, mouse, po, 1 mg/kg",25 min
same,half-life,"in vivo; male, CD-1, mouse, po, 1 mg/kg",36 min
same,clinical symptoms during pharmacokinetic work,in vivo,no abnormal clinical symptoms were observed
same,fragmented and condensed Hoechst+ nuclei,"[7]; 8 μM, fibril-treated group",reduced fragmented and condensed Hoechst^+ nuclei
same,impact on fragmented/condensed cell counts with nocodazole co-treatment,"[7]; fibril groups, nocodazole 1 and 5 nM",prevented by both concentrations of nocodazole
same,appearance of βIII-tubulin+ structures after cold methanol fixation,[8],did not alter the appearance of βIII-tubulin^+ structures
same,correlation between insoluble α-synuclein and locomotor speed,[9]; 5 mg/kg,uncoupled the inverse correlation between insoluble α-synuclein and locomotor speed
same,"hyperphosphorylation (pSer129) of insoluble α-synuclein, piriform cortex and amygdala","[9]; 5 mg/kg, six weeks, listed as AG161-47",modestly lowered; also recorded: reduced the hyperphosphorylation of insoluble α-synuclein
same,effect on Lewy-related pathology,"[9]; 10 mg/kg, six weeks",too high to exert beneficial effects
same,bodyweight,"[9]; daily tablets 5 or 10 mg/kg, six weeks, compared to placebo",No loss of bodyweight
same,"acetylated, detyrosinated, or tyrosinated α-tubulin levels in whole-fraction OB/AON","[9]; immunoblotting, six weeks",virtually no net effect
same,α-synucleinopathic inclusion counts,"[9]; piriform cortex sections, six weeks",does not affect α-synucleinopathic inclusion counts
same,locomotor activity in an open arena,[9]; six weeks after fibril infusions,reduced locomotor activity
same,"other behavior measures (novel odor habituation, Y-maze, marble burying)",[9]; six weeks of daily tablets,no impact
same,in vitro assembly of porcine brain tubulin,[6],accelerated and amplified the net in vitro assembly of tubulin
same,microtubule effects in HeLa cells,[10],elicited both stabilization and relaxation of microtubules
"Brc1c(Br)c(Br)c2n[nH]nc2c1Br [TBB, reference compound]",IC50,"CSNK1A1 (CK1 alpha 1); representative value, ATP bin 5 μM, read-out: IC50 (nM) of Std inhibitor, CSNK1A1 (CK1 alpha 1)",12600 nM
"COc1cc2ncnc(Nc3cccc(Cl)c3)c2cc1OC [Tyrphostin AG1478, reference compound]",IC50,"ABL1; representative value, ATP bin 10 μM, read-out: IC50 (nM) of Std inhibitor, ABL1",326 nM
same,IC50,"FYN; representative value, ATP bin 75 μM, read-out: IC50 (nM) of Std inhibitor, FYN",5300 nM
COC(=O)Nc1nc2ccc(C(=O)c3cccs3)cc2[nH]1 [nocodazole],number of viable Hoechst+ cells,"[7]; fibrils, escalating AG161-47 up to 8 μM, nocodazole 1 and 5 nM, 10 days",no statistically significant changes
same,toxicity to primary hippocampal cultures,[7],also found to be toxic
same,acetylated (stable) α-tubulin levels,[11],raised the levels of acetylated (stable) α-tubulin
same,appearance of βIII-tubulin+ structures after cold methanol fixation,[8],neurotoxicity and severe beading of axonal microtubules
epothilone,toxicity to primary hippocampal cultures,[7],toxic to primary hippocampal cultures at nanomolar concentrations; also recorded: also found to be toxic
